Test results: the NIST ThermoML archive (doi:10.1016/j.jct.2017.02.023)

Assays:
[1] = xn = mol fraction of the nth substance listed; conditions: 81.5 kPa, Liquid, Vibrating tube method
[2] = refractive index (Na D-line) (dimensionless); xn = mol fraction of the nth substance listed; conditions: 81.5 kPa, Liquid, Standard Abbe refractometry

CNC1CCCCC1 [N-methylcyclohexylamine] + CCCCCCC(C)O
Conditions	mass density, 298.15 K [kg/m3]	mass density, 308.15 K [kg/m3]	mass density, 318.15 K [kg/m3]	mass density, 328.15 K [kg/m3]	refractive index, 298.15 K	refractive index, 308.15 K	refractive index, 318.15 K	refractive index, 328.15 K
[1], x2 = 0	865.2	856.57	847.67	838.68	–	–	–	–
[1], x2 = 0.0727	861.37	852.86	844.07	835.18	–	–	–	–
[1], x2 = 0.148	857.59	849.18	840.45	831.62	–	–	–	–
[1], x2 = 0.2246	853.95	845.6	836.92	828.14	–	–	–	–
[1], x2 = 0.3025	850.34	842.06	833.44	824.7	–	–	–	–
[1], x2 = 0.3826	846.62	838.42	829.86	821.17	–	–	–	–
[1], x2 = 0.4636	842.77	834.65	826.15	817.53	–	–	–	–
[1], x2 = 0.5484	838.61	830.58	822.16	813.61	–	–	–	–
[1], x2 = 0.6332	834.36	826.43	818.08	809.6	–	–	–	–
[1], x2 = 0.7205	829.99	822.17	813.9	805.49	–	–	–	–
[1], x2 = 0.8128	825.54	817.82	809.62	801.27	–	–	–	–
[1], x2 = 0.9052	821.3	813.66	805.52	797.23	–	–	–	–
[2], x2 = 0	–	–	–	–	1.45306	1.44812	1.4431	1.43809
[2], x2 = 0.0727	–	–	–	–	1.45123	1.44643	1.44156	1.43676
[2], x2 = 0.148	–	–	–	–	1.44931	1.44459	1.43978	1.43507
[2], x2 = 0.2246	–	–	–	–	1.44739	1.44272	1.43794	1.43327
[2], x2 = 0.3025	–	–	–	–	1.44545	1.44084	1.43612	1.43148
[2], x2 = 0.3826	–	–	–	–	1.44348	1.43892	1.43425	1.42963
[2], x2 = 0.4636	–	–	–	–	1.44143	1.43692	1.43233	1.42778
[2], x2 = 0.5484	–	–	–	–	1.43898	1.43456	1.43003	1.42554
[2], x2 = 0.6332	–	–	–	–	1.43641	1.43207	1.42763	1.42323
[2], x2 = 0.7205	–	–	–	–	1.4337	1.42942	1.42503	1.42073
[2], x2 = 0.8128	–	–	–	–	1.43079	1.42658	1.42227	1.41802
[2], x2 = 0.9052	–	–	–	–	1.42779	1.42366	1.41941	1.41523
